Test results published in patent US5545547A, “Enzymes as agricultural chemical adjuvants” (priority 1992, dated 1996).

Legend:
Assay type in all cases: in vivo
various plants = test: Greenhouse multispecies herbicide screen, statements on all tested plants
Source text: (§1) Several plant species including weeds and crops are used in these experiments.
A number of herbicides from various chemical classes were compared in a multispecies screen for percent chlorosis, necrosis and vigor reduction both with and without application of the enzyme from Pseudomonas mendocina ATCC 53552 described earlier. The herbicides were applied to various plants at the manufacturers recommended doses and at 10% and 40% of the recommended dose. Two different enzyme concentrations were used: 0.5 mg/ml (HE) and 0.05 mg/ml (LE) and applied at the rate of 40 gallons/acre. All spraying solutions were at pH 10 and contained 100 mm sodium phosphate each. […] All the experiments were carried out in a greenhouse.

Turnip = test: Greenhouse multispecies herbicide screen with/without P. mendocina enzyme; conditions: for CHL (chlorosis) / NEC (necrosis) / PHY (phytotoxicity) / VIG (vigor) / % PHY (phytotoxicity): two weeks after treatment
Source text: as §1
(§2) A number of herbicides from various chemical classes were compared in a multispecies screen for percent chlorosis, necrosis and vigor reduction both with and without application of the enzyme from Pseudomonas mendocina ATCC 53552 described earlier. The herbicides were applied to various plants at the manufacturers recommended doses and at 10% and 40% of the recommended dose. Two different enzyme concentrations were used: 0.5 mg/ml (HE) and 0.05 mg/ml (LE) and applied at the rate of 40 gallons/acre. All spraying solutions were at pH 10 and contained 100 mm sodium phosphate each. Ratings were done at 6 and 12 days after the treatment. All the experiments were carried out in a greenhouse.
(§3) Chlorosis--figures represent percent of plants showing chlorosis.
(§4) Necrosis--figures represent percent of plants showing necrosis.
(§5) Vigor--figures represent percent of plants showing decreased vigor.
(§6) Phytotoxicity--figures represent the average percent of chlorosis, necrosis, and vigor for a given sample.
(§7) The method of Example 1 was used except that the enzyme was applied 2 hours prior to administering the agricultural chemical with the following results. Ratings were done two weeks after treatment

Soybeans = test: as above; conditions: two weeks after treatment
Source text: as §1, §2, §3, §4, §5, §6, §7

[1] = Example 8: BASAGRAN 10% dose, High Enzyme applied 2 hours prior
[2] = Example 8: BASAGRAN 10% dose, Low Enzyme applied 2 hours prior
[3] = Example 8: BASAGRAN 10% dose, No Enzyme

## CC(C)N1C(=O)c2ccccc2NS1(=O)=O [BASAGRAN, 3-(1-methylethyl)-1H-,2,1,3-benzothiadiazin-4(3H)-one 2,2-dioxide]
Various plants; BASAGRAN applied at 40% of the recommended dosage, two weeks after treatment
  Plants killed: completely killed
Turnip; BASAGRAN 10% dose, High Enzyme
  CHL (chlorosis): 38%
  NEC (necrosis): 50%
  PHY (phytotoxicity): 50%
  VIG (vigor): 63%
Turnip; BASAGRAN 10% dose, Low Enzyme
  CHL (chlorosis): 38%
  NEC (necrosis): 63%
  PHY (phytotoxicity): 59%
  VIG (vigor): 75%
Turnip; BASAGRAN 10% dose, No Enzyme
  CHL (chlorosis): 25%
  NEC (necrosis): 25%
  PHY (phytotoxicity): 29%
  VIG (vigor): 38%
Turnip; [1]
  % PHY (phytotoxicity): 41%
  CHL (chlorosis): 30%
  NEC (necrosis): 50%
  VIG (vigor): 43%
Turnip; [2]
  % PHY (phytotoxicity): 78%
  CHL (chlorosis): 63%
  NEC (necrosis): 85%
  VIG (vigor): 85%
Turnip; [3]
  % PHY (phytotoxicity): 48%
  CHL (chlorosis): 25%
  NEC (necrosis): 63%
  VIG (vigor): 55%
Soybeans; BASAGRAN 10% dose, High Enzyme
  CHL (chlorosis): 18%
  NEC (necrosis): 38%
  PHY (phytotoxicity): 43%
  VIG (vigor): 73%
Soybeans; BASAGRAN 10% dose, Low Enzyme
  CHL (chlorosis): 18%
  NEC (necrosis): 43%
  PHY (phytotoxicity): 37%
  VIG (vigor): 50%
Soybeans; BASAGRAN 10% dose, No Enzyme
  CHL (chlorosis): 5%
  NEC (necrosis): 5%
  PHY (phytotoxicity): 8%
  VIG (vigor): 13%
Soybeans; [1]
  % PHY (phytotoxicity): 2%
  CHL (chlorosis): 0%
  NEC (necrosis): 5%
  VIG (vigor): 0%
Soybeans; [2]
  % PHY (phytotoxicity): 48%
  CHL (chlorosis): 48%
  NEC (necrosis): 48%
  VIG (vigor): 48%
Soybeans; [3]
  % PHY (phytotoxicity): 25%
  CHL (chlorosis): 25%
  NEC (necrosis): 25%
  VIG (vigor): 25%

## CN(C)C(=O)Nc1ccc(Cl)c(Cl)c1 [KARMEX, 3-(3,4-dichlorophenyl)-1,1-dimethylurea]
Various plants; KARMEX under the test conditions
  Phytotoxicity: low
Turnip; KARMEX 10% dose, High Enzyme
  CHL (chlorosis): 18%
  NEC (necrosis): 15%
  PHY (phytotoxicity): 11%
  VIG (vigor): 0%
Turnip; KARMEX 10% dose, Low Enzyme
  CHL (chlorosis): 18%
  NEC (necrosis): 15%
  PHY (phytotoxicity): 11%
  VIG (vigor): 5%
Turnip; KARMEX 10% dose, No Enzyme
  CHL (chlorosis): 28%
  NEC (necrosis): 10%
  PHY (phytotoxicity): 13%
  VIG (vigor): 0%
Turnip; KARMEX 40% dose, High Enzyme
  CHL (chlorosis): 35%
  NEC (necrosis): 25%
  PHY (phytotoxicity): 36%
  VIG (vigor): 50%
Turnip; KARMEX 40% dose, Low Enzyme
  CHL (chlorosis): 30%
  NEC (necrosis): 50%
  PHY (phytotoxicity): 41%
  VIG (vigor): 43%
Turnip; KARMEX 40% dose, No Enzyme
  CHL (chlorosis): 25%
  NEC (necrosis): 38%
  PHY (phytotoxicity): 33%
  VIG (vigor): 37%
Turnip; KARMEX at 40% of the recommended dosage, with enzyme, sprayed on turnips
  Phytotoxicity with enzyme: increased phytotoxicity
Soybeans; KARMEX 10% dose, High Enzyme
  CHL (chlorosis): 0%
  NEC (necrosis): 0%
  PHY (phytotoxicity): 0%
  VIG (vigor): 0%
Soybeans; KARMEX 10% dose, Low Enzyme
  CHL (chlorosis): 0%
  NEC (necrosis): 0%
  PHY (phytotoxicity): 0%
  VIG (vigor): 0%
Soybeans; KARMEX 10% dose, No Enzyme
  CHL (chlorosis): 0%
  NEC (necrosis): 0%
  PHY (phytotoxicity): 0%
  VIG (vigor): 0%
Soybeans; KARMEX 40% dose, High Enzyme
  CHL (chlorosis): 0%
  NEC (necrosis): 13%
  PHY (phytotoxicity): 8%
  VIG (vigor): 10%
Soybeans; KARMEX 40% dose, Low Enzyme
  CHL (chlorosis): 0%
  NEC (necrosis): 15%
  PHY (phytotoxicity): 6%
  VIG (vigor): 5%
Soybeans; KARMEX 40% dose, No Enzyme
  CHL (chlorosis): 0%
  NEC (necrosis): 10%
  PHY (phytotoxicity): 3%
  VIG (vigor): 0%
